Assay results: ChEMBL document CHEMBL5131522, “3-Pyrrolidine-indole Derivatives as 5-HT2-Selective Receptor Modulators for the Potential Treatment of Mental Disorders” (ACS Med Chem Lett, 2022)

Biological target: 5-hydroxytryptamine receptor 2A (Homo sapiens, UniProt P28223)
Assay: Agonist activity at human 5-HT2A receptor expressed in cells assessed as increase in calcium mobilization by Calcium-6 dye based FLIPR assay
Type: functional, cell-based

5-hydroxytryptamine receptor 2A, sequence (P28223 whole entry): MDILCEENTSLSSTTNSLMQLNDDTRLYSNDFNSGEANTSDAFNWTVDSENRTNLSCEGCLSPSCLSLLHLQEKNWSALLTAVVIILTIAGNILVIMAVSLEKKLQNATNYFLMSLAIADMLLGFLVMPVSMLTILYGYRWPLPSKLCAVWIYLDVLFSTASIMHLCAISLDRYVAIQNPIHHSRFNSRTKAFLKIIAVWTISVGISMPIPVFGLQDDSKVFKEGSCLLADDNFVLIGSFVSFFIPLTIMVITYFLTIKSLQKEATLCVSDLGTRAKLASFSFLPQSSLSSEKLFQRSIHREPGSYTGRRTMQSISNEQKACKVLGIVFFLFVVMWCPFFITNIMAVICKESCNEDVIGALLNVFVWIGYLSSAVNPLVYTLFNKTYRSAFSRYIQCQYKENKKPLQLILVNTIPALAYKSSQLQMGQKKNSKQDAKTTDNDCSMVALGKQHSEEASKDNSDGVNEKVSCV

`[2H]C([2H])(c1c[nH]c2cccc(O)c12)[C@H]1CCCN1C([2H])([2H])[2H]` was tested, and the EC50 was under 1000 nM.

In the case of `[2H]C([2H])(c1c[nH]c2cccc(OC)c12)[C@H]1CCCN1C([2H])([2H])[2H]`, the EC50 is reported as under 1000 nM.

Compound `[2H]C([2H])(c1c[nH]c2cccc(F)c12)[C@H]1CCCN1` has an EC50 of 1000 nM.

`[2H]C([2H])(c1c[nH]c2cccc(O)c12)[C@@H]1CCCN1` was tested, and the EC50 was under 1000 nM.

With `CN1CCC[C@@H]1Cc1c[nH]c2cccc(O)c12` the EC50 was under 1000 nM.

For `[2H]C([2H])([2H])N1CCC[C@@H]1Cc1c[nH]c2cccc(F)c12`, the EC50 was under 1000 nM.

For `Oc1cccc2[nH]cc(C[C@H]3CCCN3)c12`, the EC50 was under 1000 nM.

In the case of `[2H]C([2H])([2H])N1CCC[C@H]1Cc1c[nH]c2cccc(OCc3ccccc3)c12`, the EC50 is reported as under 10000 nM.

`[2H]C([2H])(c1c[nH]c2cccc(F)c12)[C@H]1CCCN1C([2H])([2H])[2H]` was tested, and the EC50 was under 1000 nM.

Compound `[2H]C([2H])([2H])N1CCC[C@@H]1Cc1c[nH]c2cccc(O)c12` has an EC50 of under 1000 nM.
